According to BigSolDB 2.1:

O=C(O)c1ccccc1Nc1ccccc1
solubility (mole fraction)
Settings	in ethanol	in methanol	in tert-butanol
283.15 K	0.0101	0.00519	–
285.65 K	0.0107	0.00556	–
288.15 K	0.0112	0.00606	–
290.65 K	0.0112	0.00653	–
293.15 K	0.0123	0.00701	–
295.65 K	0.0131	0.0073	–
298.15 K	0.0136	0.00796	0.0189
300.65 K	0.0144	0.00837	0.02
303.15 K	0.0154	0.00883	0.0225
305.65 K	0.0163	0.00916	0.0256
308.15 K	0.0175	0.00971	0.0279
310.65 K	0.0187	0.0103	0.0298
313.15 K	0.02	0.0117	0.0319
315.65 K	0.0221	0.0134	0.0353
318.15 K	0.0242	0.0156	0.0389
